# Experimental data reported in paper PMC11995216, “End-to-End Backbone Cyclization Enhances Passive Permeability of bRo5 Oligomeric Depsipeptides with Nonlinear Size Dependence” (ACS Medicinal Chemistry Letters, 2025).
# Read-outs that look alike come from different tables or passages of the source.
# Columns and labels:
# PAMPA [1] = tested on: PAMPA
# [2] = PAMPA, permeability assay across an artificial membrane; settings: for Acceptor Concentration, Ave: after incubation
# PAMPA [3] = tested on: PAMPA; remark: listed apart in the source
# [4] = PAMPA, ratio-based method, mean ± SD, C0 500 uM, UV detection
smiles,measurement,setting,value
"CCCCC[C@@H]1OC(=O)[C@@H](C)N(C)C(=O)[C@H](CCCCC)OC(=O)[C@@H](C)N(C)C(=O)[C@H](CCCCC)OC(=O)[C@@H](C)N(C)C(=O)[C@H](CCCCC)OC(=O)[C@@H](C)N(C)C1=O [Compound C1.4, ent-verticilide]",Acceptor Concentration,PAMPA [1]; Acceptor Concentration (uM) – ELSD Detection / [row 1],122 µM
same,Acceptor Concentration,PAMPA [1]; Acceptor Concentration (uM) – ELSD Detection / [row 2],148 µM
same,Acceptor Concentration,PAMPA [1]; Acceptor Concentration (uM) – ELSD Detection / [row 3],157 µM
same,Acceptor Concentration,PAMPA [1]; Acceptor Concentration (uM) – ELSD Detection / [row 4],122 µM
same,Acceptor Concentration,PAMPA [1]; Acceptor Concentration (uM) – ELSD Detection / [row 5],137 µM
same,Acceptor Concentration,PAMPA [1]; Acceptor Concentration (uM) – ELSD Detection / [row 6],76.5 µM
same,Acceptor Concentration,PAMPA [1]; Acceptor Concentration (uM) – ELSD Detection / [row 7],98.2 µM
same,Acceptor Concentration,PAMPA [1]; Acceptor Concentration (uM) – ELSD Detection / [row 8],94.4 µM
same,Acceptor Concentration,PAMPA [1]; Acceptor Concentration (uM) – ELSD Detection / [row 9],105 µM
same,Acceptor Concentration,PAMPA [1]; Acceptor Concentration (uM) – ELSD Detection / [row 10],92.1 µM
same,Acceptor Concentration,PAMPA [1]; Acceptor Concentration (uM) – ELSD Detection / [row 11],114 µM
same,Acceptor Concentration,PAMPA [1]; Acceptor Concentration (uM) – ELSD Detection / [row 12],159 µM
same,Acceptor Concentration,PAMPA [1]; Acceptor Concentration (uM) – ELSD Detection / [row 13],121 µM
same,Acceptor Concentration,PAMPA [1]; Acceptor Concentration (uM) – ELSD Detection / [row 14],125 µM
same,Acceptor Concentration,PAMPA [1]; Acceptor Concentration (uM) – ELSD Detection / [row 15],150 µM
same,Acceptor Concentration,PAMPA [1]; Acceptor Concentration (uM) – ELSD Detection / [row 16],136 µM
same,Acceptor Concentration,PAMPA [1]; Acceptor Concentration (uM) – ELSD Detection / [row 17],142 µM
same,Acceptor Concentration,PAMPA [1]; Acceptor Concentration (uM) – ELSD Detection / [row 18],129 µM
same,Acceptor Concentration,PAMPA [1]; Acceptor Concentration (uM) – ELSD Detection / [row 19],90.2 µM
same,Acceptor Concentration,PAMPA [1]; Acceptor Concentration (uM) – ELSD Detection / [row 20],59.8 µM
same,Acceptor Concentration,PAMPA [1]; Acceptor Concentration (uM) – ELSD Detection / [row 21],91.7 µM
same,Acceptor Concentration,PAMPA [1]; Acceptor Concentration (uM) – ELSD Detection / [row 22],130 µM
same,Acceptor Concentration,PAMPA [1]; Acceptor Concentration (uM) – ELSD Detection / [row 23],115 µM
same,Acceptor Concentration,PAMPA [1]; Acceptor Concentration (uM) – ELSD Detection / [row 24],125 µM
same,Diffusion (%),"[2]; PAMPA percent diffusion, C0 500 uM",25.5 ± 3.4%
same,Papp at 500 uM,"[2]; PAMPA, Ave, ELSD detection, C0 500 uM",5.69 ×10⁻⁶ cm/s
same,Papp at 500 uM,[2]; [4],7.14 ± 0.65 ×10⁻⁶ cm/s
same,"Acceptor Concentration, Ave","[2]; PAMPA, ELSD detection, C0 500 uM",118.4 µM
same,"Acceptor Concentration, Ave","[2]; PAMPA, UV detection, C0 500 uM",127.6 µM
same,"Acceptor Concentration, Ave","[2]; PAMPA, UV detection, C0 500 uM, listed as ent‐Verticilide",127.56 µM
same,LogPapp,[2]; [4],-5.21 ± 0.09
same,Δ % diffusion,[2]; increase: difference between percent diffusion of macrocycle vs linear counterpart,↑14%
same,Papp,"PAMPA [3]; Papp (x 10^-6 cm/s) – ELSD Detection / [row 1], ELSD Detection",7.05 ×10⁻⁶ cm/s
same,Papp,"PAMPA [3]; Papp (x 10^-6 cm/s) – ELSD Detection / [row 2], ELSD Detection",7.2 ×10⁻⁶ cm/s
same,Papp,"PAMPA [3]; Papp (x 10^-6 cm/s) – ELSD Detection / [row 3], ELSD Detection",4.28 ×10⁻⁶ cm/s
same,Papp,"PAMPA [3]; Papp (x 10^-6 cm/s) – ELSD Detection / [row 4], ELSD Detection",7.39 ×10⁻⁶ cm/s
same,Papp,"PAMPA [3]; Papp (x 10^-6 cm/s) – ELSD Detection / [row 5], ELSD Detection",4.99 ×10⁻⁶ cm/s
same,Papp,"PAMPA [3]; Papp (x 10^-6 cm/s) – ELSD Detection / [row 6], ELSD Detection",6.24 ×10⁻⁶ cm/s
same,Papp,"PAMPA [3]; Papp (x 10^-6 cm/s) – ELSD Detection / [row 7], ELSD Detection",5.58 ×10⁻⁶ cm/s
same,Papp,"PAMPA [3]; Papp (x 10^-6 cm/s) – ELSD Detection / [row 8], ELSD Detection",7.27 ×10⁻⁶ cm/s
same,Papp,"PAMPA [3]; Papp (x 10^-6 cm/s) – ELSD Detection / [row 9], ELSD Detection",4.68 ×10⁻⁶ cm/s
same,Papp,"PAMPA [3]; Papp (x 10^-6 cm/s) – ELSD Detection / [row 10], ELSD Detection",4.63 ×10⁻⁶ cm/s
same,Papp,"PAMPA [3]; Papp (x 10^-6 cm/s) – ELSD Detection / [row 11], ELSD Detection",4.05 ×10⁻⁶ cm/s
same,Papp,"PAMPA [3]; Papp (x 10^-6 cm/s) – ELSD Detection / [row 12], ELSD Detection",6.98 ×10⁻⁶ cm/s
same,Papp,"PAMPA [3]; Papp (x 10^-6 cm/s) – ELSD Detection / [row 13], ELSD Detection",4.62 ×10⁻⁶ cm/s
same,Papp,"PAMPA [3]; Papp (x 10^-6 cm/s) – ELSD Detection / [row 14], ELSD Detection",3.79 ×10⁻⁶ cm/s
same,Papp,"PAMPA [3]; Papp (x 10^-6 cm/s) – ELSD Detection / [row 15], ELSD Detection",4.66 ×10⁻⁶ cm/s
same,Papp,"PAMPA [3]; Papp (x 10^-6 cm/s) – ELSD Detection / [row 16], ELSD Detection",5.98 ×10⁻⁶ cm/s
same,Papp,"PAMPA [3]; Papp (x 10^-6 cm/s) – ELSD Detection / [row 17], ELSD Detection",5.46 ×10⁻⁶ cm/s
same,Papp,"PAMPA [3]; Papp (x 10^-6 cm/s) – ELSD Detection / [row 18], ELSD Detection",6.2 ×10⁻⁶ cm/s
same,Papp,"PAMPA [3]; Papp (x 10^-6 cm/s) – ELSD Detection / [row 19], ELSD Detection",5.51 ×10⁻⁶ cm/s
same,Papp,"PAMPA [3]; Papp (x 10^-6 cm/s) – ELSD Detection / [row 20], ELSD Detection",5.72 ×10⁻⁶ cm/s
same,Papp,"PAMPA [3]; Papp (x 10^-6 cm/s) – ELSD Detection / [row 21], ELSD Detection",4.75 ×10⁻⁶ cm/s
same,Papp,"PAMPA [3]; Papp (x 10^-6 cm/s) – ELSD Detection / [row 22], ELSD Detection",7.56 ×10⁻⁶ cm/s
same,Papp,"PAMPA [3]; Papp (x 10^-6 cm/s) – ELSD Detection / [row 23], ELSD Detection",7.22 ×10⁻⁶ cm/s
same,Papp,"PAMPA [3]; Papp (x 10^-6 cm/s) – ELSD Detection / [row 24], ELSD Detection",4.78 ×10⁻⁶ cm/s
same,Papp,"PAMPA [3]; Papp (x 10^-6 cm/s) – UV Detection / [row 1], UV Detection",6.39 ×10⁻⁶ cm/s
same,Papp,"PAMPA [3]; Papp (x 10^-6 cm/s) – UV Detection / [row 2], UV Detection",7.95 ×10⁻⁶ cm/s
same,Papp,"PAMPA [3]; Papp (x 10^-6 cm/s) – UV Detection / [row 3], UV Detection",6.48 ×10⁻⁶ cm/s
same,Papp,"PAMPA [3]; Papp (x 10^-6 cm/s) – UV Detection / [row 4], UV Detection",7.85 ×10⁻⁶ cm/s
same,Papp,"PAMPA [3]; Papp (x 10^-6 cm/s) – UV Detection / [row 5], UV Detection",6.83 ×10⁻⁶ cm/s
same,Papp,"PAMPA [3]; Papp (x 10^-6 cm/s) – UV Detection / [row 6], UV Detection",7.11 ×10⁻⁶ cm/s
same,Papp,"PAMPA [3]; Papp (x 10^-6 cm/s) – UV Detection / [row 7], UV Detection",6.85 ×10⁻⁶ cm/s
same,Papp,"PAMPA [3]; Papp (x 10^-6 cm/s) – UV Detection / [row 8], UV Detection",7.63 ×10⁻⁶ cm/s
same,Papp,"PAMPA [3]; Papp (x 10^-6 cm/s) – UV Detection / [row 9], UV Detection",4.68 ×10⁻⁶ cm/s
same,Papp,"PAMPA [3]; Papp (x 10^-6 cm/s) – UV Detection / [row 10], UV Detection",4.63 ×10⁻⁶ cm/s
same,Papp,"PAMPA [3]; Papp (x 10^-6 cm/s) – UV Detection / [row 11], UV Detection",4.05 ×10⁻⁶ cm/s
same,Papp,"PAMPA [3]; Papp (x 10^-6 cm/s) – UV Detection / [row 12], UV Detection",6.98 ×10⁻⁶ cm/s
same,Papp,"PAMPA [3]; Papp (x 10^-6 cm/s) – UV Detection / [row 13], UV Detection",4.62 ×10⁻⁶ cm/s
same,Papp,"PAMPA [3]; Papp (x 10^-6 cm/s) – UV Detection / [row 14], UV Detection",3.79 ×10⁻⁶ cm/s
same,Papp,"PAMPA [3]; Papp (x 10^-6 cm/s) – UV Detection / [row 15], UV Detection",4.66 ×10⁻⁶ cm/s
same,Papp,"PAMPA [3]; Papp (x 10^-6 cm/s) – UV Detection / [row 16], UV Detection",5.98 ×10⁻⁶ cm/s
same,Papp,"PAMPA [3]; Papp (x 10^-6 cm/s) – UV Detection / [row 17], UV Detection",6.44 ×10⁻⁶ cm/s
same,Papp,"PAMPA [3]; Papp (x 10^-6 cm/s) – UV Detection / [row 18], UV Detection",7.86 ×10⁻⁶ cm/s
same,Papp,"PAMPA [3]; Papp (x 10^-6 cm/s) – UV Detection / [row 19], UV Detection",4.86 ×10⁻⁶ cm/s
same,Papp,"PAMPA [3]; Papp (x 10^-6 cm/s) – UV Detection / [row 20], UV Detection",6.27 ×10⁻⁶ cm/s
same,Papp,"PAMPA [3]; Papp (x 10^-6 cm/s) – UV Detection / [row 21], UV Detection",6.77 ×10⁻⁶ cm/s
same,Papp,"PAMPA [3]; Papp (x 10^-6 cm/s) – UV Detection / [row 22], UV Detection",5.18 ×10⁻⁶ cm/s
same,Papp,"PAMPA [3]; Papp (x 10^-6 cm/s) – UV Detection / [row 23], UV Detection",5.55 ×10⁻⁶ cm/s
same,Papp,"PAMPA [3]; Papp (x 10^-6 cm/s) – UV Detection / [row 24], UV Detection",6.05 ×10⁻⁶ cm/s
